# Test results reported in patent US9371527B2, “Compositions and methods related to protein displacement therapy for myotonic distrophy” (University of Rochester, priority 2006, dated 2016).
# Tests used:
# [1] = system: interaction of CUG repeat RNA with recombinant MBNL1 protein (MBNL1-PL); test: Beta-galactosidase enzymatic complementation assay; format: binding, human; conditions: (CUG)109 tethered to streptavidin plate
# Protocol: FIGS. 33A and 33B. […] (CUG)109 transcripts are tethered to the surface of a streptavidin-coated microtiter plate using a capture oligonucleotide that is biotinylated. The capture oligo anneals to complementary sequence at the 3′ end of the CUG repeat RNA. Recombinant human MBNL1 is expressed as a fusion with the PL fragment of beta-galactosidase. PL is a 55 amino acid fragment of beta-galactosidase. […] After incubation with test compound, unbound MBNL1-PL is washed away (FIG. 33B). Next, the complementing fragment of beta-galactosidase is added to determine the amount of MBNL1-PL that continues to interact with (CUG)109 RNA and thereby is retained on the microtiter plate. The binding of complementing fragment of beta-galactosidase to PL reconstitutes its enzymatic activity. This activity is then determined by adding substrate to provide a fluorescence or chemiluminescence signal from active beta-galactosidase. […]
# (CUG)109 transcripts are tethered to the surface of a streptavidin-coated microtiter plate using a capture oligonucleotide that is biotinylated. […] Recombinant human MBNL1 is expressed as a fusion with the PL fragment of beta-galactosidase. […] This activity is then determined by adding substrate to provide a fluorescence or chemiluminescence signal from active beta-galactosidase. […]
# [2] = system: recombinant MBNL1 protein with (CUG)109 RNA; test: Gel shift assay of MBNL1 with (CUG)109 RNA in presence of CAG25 morpholino; format: binding, human; conditions: increasing amounts of CAG25 morpholino
# Excerpt: Interaction of recombinant MBNL1 protein with (CUG)109 RNA was examined by gel shift assay, in the presence of increasing amounts of CAG25 morpholino.
# Also disclosed herein are methods involving the interaction of soluble, fluorescently-labeled MBNL1 protein with poly(CUG)^109 tethered at the surface of a microtiter plate. Different commercial microtiter plates for capacity to bind in vitro transcribed poly(CUG)^109 and background activity (non-specific binding of labeled MBNL1). For tethering poly(CUG)^109 to plates, a “capture” oligodeoxynucleotide (ODN) complementary to the A-rich 3′ terminus of the poly(CUG)^109 transcript, labeled either with biotin or a reactive group at the 5′ end for attachment to the plate (shown in FIG. 3C in the case of biotin) was used. […] Next, the concentration of capture ODN that saturates binding sites (12.5 pmoles/100 μl/well) and the concentration of poly(CUG)^109 that saturates the capture ODN (of 5 pmole added per well, 0.5 pmole was bound to capture ODN) were determined. Additionally, conditions for fluorescence labeling of MBNL1 protein via conjugation between primary amines on protein and fluorescein-EX dyes (Molecular Probes) were determined. The detection threshold and range of linearity was determined for labeled protein in gels and microplates (FIG. 2B). […]
# [3] = system: MBNL1 protein in ribonuclear foci; test: MBNL1 immunofluorescence after CAG25 morpholino injection into tibialis anterior; format: in vivo, HSA^LR transgenic mice; conditions: intramuscular injection + electroporation, vs saline contralateral
# Protocol: The morpholino was compromised entirely of CAG repeats and was 25 nucleotides in length (CAG25). CAG25 morpholino dissolved in phosphate buffered saline was injected into tibialis anterior muscle of HSA^LR transgenic mice, followed by electroporation to facilitate entry into muscle cells. The contralateral tibialis anterior muscle was injected with saline alone, followed by electroporation. The distribution of MBNL1 in tibialis anterior was determined by immunofluorescence with anti-MBNL1 antibody A2764. In muscle injected with saline, MBNL1 was sequestered in ribonuclear foci (nuclei are counterstained with DAPI).
# [4] = system: SERCA1 alternative splicing; test: RT-PCR of SERCA1 alternative splicing after CAG25 morpholino; format: in vivo, HSA^LR transgenic mice; conditions: 3 weeks following CAG25 injection, tibialis anterior, 4 mice
# Excerpt: Morpholino-treated muscle is indicated by “+”. Results from tibialis anterior in the opposite hindlimb, injected with saline alone, are indicated by “−”. The side of morpholino injection was randomly determined, and this assignment remained blinded until after the splicing analysis was completed. Het. dupl. indicates a heteroduplex PCR product.
# [5] = system: ZASP alternative splicing; test: RT-PCR of ZASP alternative splicing after CAG25 morpholino; format: in vivo, HSA^LR transgenic mice; conditions: 3 weeks following CAG25 injection, tibialis anterior
# Excerpt: Morpholino-treated muscle is indicated by “+”. Results from tibialis anterior in the opposite hindlimb, injected with saline alone, are indicated by “−”. The side of morpholino injection was randomly determined, and this assignment remained blinded until after the splicing analysis was completed.
# [6] = system: ClC-1 exon 7a alternative splicing; test: RT-PCR of ClC-1 alternative splicing after CAG25 morpholino; format: in vivo, HSA^LR transgenic mice; conditions: tibialis anterior, vs saline contralateral
# Excerpt: Adult wild-type (WT) mice show low levels of exon 7a inclusion. In HSA^LR transgenic mice, the fraction of ClC-1 splice products that include exon 7a is increased. Inclusion of exon 7a causes a frame shift and creates a premature termination codon that truncates most of the ClC-1 coding sequence. Of note, transcripts that include exon 7a have accelerated degradation via nonsense mediated decay, therefore they are underrepresented at steady state and on this gel. The higher bands on the gel are other alternative splice products, as shown (Mankodi et al, Molecular Cell 10:35-44, 2002.) In HSA^LR transgenic mice, injection of CAG morpholino into tibialis anterior improved the defect of ClC-1 alternative splicing. Morpholino-treated muscle is indicated by “+”. Results from tibialis anterior in the opposite hindlimb, injected with saline alone, are indicated by “−”.
# ClC-1 chloride channel = test: ClC-1 immunofluorescence after CAG25 morpholino; format: in vivo, HSA^LR transgenic mice; conditions: 3 weeks following injection
# Excerpt: Immunofluorescence for ClC-1 chloride channel is shown in sections of tibialis anterior muscle from HSA^LR transgenic mice. Muscle fibers show mosaic expression of ClC-1 in HSA^LR muscle injected with saline. Some of these fibers are completely lacking in ClC-1 protein.
# HSA^LR transgenic mice = test: Electromyography of myotonia after CAG25 morpholino; format: in vivo; conditions: p<0.001
# Excerpt: FIG. 17 uses Electromyography to show the improvement of myotonia at 3 and 6 weeks after injection of CAG25 morpholino into tibialis anterior of HSA^LR transgenic mice. Myotonia is a state of muscle hyperexcitability in which muscle fibers display repetitive action potentials. Myotonia in the HSA^LR transgenic mouse model of myotonic dystrophy is caused by abnormal regulation of alternative splicing for ClC-1 and subsequent reduction of chloride ion channels in muscle fibers. A parallel abnormality of ClC-1 alternative splicing exists in human myotonic dystrophy. […] For each mouse, CAG25 morpholino dissolved in saline was injected into tibialis anterior muscle of one hindlimb, whereas saline alone was injected into tibialis anterior on the opposite side. The side of morpholino injection was randomly assigned. Electromyography was performed by a blinded examiner Severity of myotonia was graded on a 4 point scale: 0=no myotonic, 1=occasional myotonic discharge (fewer than 25% of needle insertions), 2=abundant myotonic discharges (25-75% of needle insertions), and 3=florid myotonia (myotonic discharges in nearly every needle insertion).
# [7] = biological target: T1, interaction of recombinant MBNL1 protein with (CUG)109 RNA (Homo sapiens, UniProt Q9NR56); test: Filter binding screening assay for inhibitors of MBNL1-(CUG)109 RNA interaction; conditions: compound+(CUG)109 RNA 5 minutes, then recombinant MBNL1 15 minutes, among 9 aminoglycoside compounds tested
# T1 construct: GST (with Prescission protease cleavage site) (N); made in house; host or cells: E. coli BL21(DE3)
# T1 sequence (Q9NR56 1-382 isoform Q9NR56-5): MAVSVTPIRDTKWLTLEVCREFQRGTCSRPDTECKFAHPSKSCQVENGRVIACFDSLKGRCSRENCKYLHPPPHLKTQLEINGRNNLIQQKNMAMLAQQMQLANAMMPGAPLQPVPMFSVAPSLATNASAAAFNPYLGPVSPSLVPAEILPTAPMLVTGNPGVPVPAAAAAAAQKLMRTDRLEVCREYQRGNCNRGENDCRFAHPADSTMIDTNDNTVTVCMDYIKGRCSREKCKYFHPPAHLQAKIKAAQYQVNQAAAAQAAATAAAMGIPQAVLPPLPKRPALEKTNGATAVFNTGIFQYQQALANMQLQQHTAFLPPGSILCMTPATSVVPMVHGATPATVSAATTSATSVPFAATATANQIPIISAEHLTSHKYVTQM
# Protocol: The order of addition was compound+(CUG)109 RNA (incubate 5 minutes), followed by recombinant MBNL1 protein (15 minute incubation), followed by application to filter.
# Next, optimal conditions were defined (ionic-strength, monovalent cations, Mg^++ and other additions, temperature) for MBNL1-poly(CUG)^109 binding in solution. All forms of recombinant MBNL1 that were tested (GST fused or cleaved, full-length or truncation of C terminal hydrophobic region, 41 or 42 kD isoform) bind to poly(CUG)^109 at low protein concentration (FIG. 3, Kd values ˜10 nM), as determined by nitrocellulose filter binding assays. In this assay, nonspecific binding of labeled RNA to nitrocellulose was very low (<0.2% of maximal positive signal). As described below, disclosed herein are methods comprising a non-radioactive microtiter plate filter binding assay similar to the one used to examine binding activities of different forms of recombinant MBNL1 in FIG. 3.
# The two components of this assay, fluorescence-labeled poly(CUG)^109 (FIG. 2B) and recombinant MBNL1 (FIG. 2A), have been developed and optimal conditions for MBNL1 binding to poly(CUG)^exp have been defined (50 mM Tris pH 8.0, 50 mM NaCl, 50 mM KCl, 1 mM Mg^++, 0.1 mM DTT) (see Preliminary Studies). Pilot binding assays have been carried out using nitrocellulose filters (FIG. 3A). […]
# [8] = biological target: T2, interaction of CUG repeat RNA with recombinant MBNL1 protein (Homo sapiens, UniProt Q9NR56); test: Fluorescence anisotropy assay for inhibitors of CUG repeat RNA-MBNL1 interaction; format: binding; conditions: (CUG)36 transcript 2 nM, aminoglycoside 10 or 50 μM, MBNL1 100 nM
# T2 construct: GST (with Prescission protease cleavage site) (N); made in house; host or cells: E. coli BL21(DE3)
# T2 sequence (Q9NR56 1-382 isoform Q9NR56-5): as above
# Protocol: Fluorescein-labeled (CUG)36 transcript (2 nM) was incubated first with aminoglycoside compound (10 or 50 μM) and then with excess amount of recombinant MBNL1 protein (100 nM). To calculate the fraction of CUG repeat RNA that remains bound to MBNL1 protein (“% bound CUG^exp”, vertical axis), results are expressed as the percentage of maximal fluorescence anisotropy in assays from which aminoglycosides were omitted. […] Values are the average +/−SD from three measurements.
# Fluorescein-labeled (CUG)36 RNA (2 nM) was incubated with MBNL1 protein (100 nM) and anisotropy was measured at time points ranging from 1 to 90 minutes. Increasing values for fluorescence anisotropy indicate interaction of fluorescein-labeled (CUG)36 transcript with MBNL1 protein.
# MBNL1 protein is known to bind CUG repeat RNAs that form a stable secondary structure (hairpin structure). Aminoglycoside antibiotics were examined to determine whether these compounds can inhibit the interaction of MBNL1 protein with CUG repeat RNA. Aminoglycosides were selected because they are known to bind structured RNA. […] To calculate the fraction of CUG repeat RNA that remains bound to MBNL1 protein (“% bound CUG^exp”, vertical axis), results are expressed as the percentage of maximal fluorescence anisotropy in assays from which aminoglycosides were omitted. […]
compound,measurement,setting,value
CCCN(CCCN(C)C)c1cc(/C=C2/Sc3ccccc3N2C)c2ccccc2[n+]1-c1ccccc1 [SybrGreen],amount of MBNL1-PL retained on plate (beta-galactosidase activity),[1],reduce the amount of MBNL1-PL retained on plate
"CAG25 morpholino: morpholino comprised entirely of CAG repeats, 25 nucleotides in length (antisense AGCAGCAGCAGCAGCAGCAGCAGCA; all phosphorodiamidate morpholino (PMO))",inhibition of interaction of MBNL1-poly(CUG)^exp RNA in vitro,[2],inhibits the interaction
same,distribution of MBNL1 in tibialis anterior nuclei,[3],more widely distributed throughout the nucleus
same,SERCA1 alternative splicing,[4],improved the defect of SERCA1 alternative splicing
same,ZASP alternative splicing,[5],improved regulation of alternative splicing for ZASP
same,ClC-1 alternative splicing (exon 7a),[6],improved the alternative splicing of ClC-1
same,expression of ClC-1 chloride channel at the surface membrane,ClC-1 chloride channel,increased expression ClC-1 protein at the surface membrane
same,myotonia severity (EMG),HSA^LR transgenic mice; 3 weeks after injection,significant reduction of myotonia
same,myotonia severity (EMG),HSA^LR transgenic mice; 6 weeks after injection,significant reduction of myotonia
neomycin,activity to inhibit formation of MBNL1-poly(CUG)^exp RNA-protein complexes,[7],highest activity
same,inhibition of MBNL1 binding to CUG repeat RNA (% bound CUG^exp),[8],strongest inhibition
